# Measurements as given in patent US6355617B1, “Peptide derivatives” (Syngenta Limited, priority 1996, dated 2002).
# Legend:
# HLA-DR4Dw4 = target: T1, HLA-DR4Dw4 (Homo sapiens, UniProt P01903+P01911, A100K/A169T/F76Y/I96L/K127E/L162R/M171V/N62H/P40V/Q125Y/R42H/S133A/S149N/S66Y/V115G/V209L/W38E); assay: Test A: Purified HLA-DR peptide in vitro binding assay; conditions: competition with biotin-FHA307-320, 48 hours incubation
# T1 construct: a cDNA encoding the β chain is cloned into the transfer vector pAcUW1; made in house; host or cells: Sf21 insect cells, double-recombinant baculovirus
# Protocol: Test A: Purified HLA-DR peptide in vitro binding assay. […]. At the end of the incubation period 100 μl of the incubate is transferred to Enzyme Linked ImmunoSorbant Assay (ELISA) plates (Nunc) previously coated with an anti-MHC antibody (L243-American Type Culture Collection (ATCC) HB55 as described in Lampson and Levy (1980) J. Immunol. 125, 293-299) at a concentration of 10 μg/ml for 1 hour at room temperature and blocked thereafter for 1 hour with 1% bovine serum albumin (BSA) in PBS and 0.05% Tween 20. […] The reaction is stopped by adding 2M sulphuric acid (10 μl per well) and the absorbance read at 450 nm to quantify the amount of peptide bound. The inhibitory activity-of peptides is obtained by plotting absorbance against concentration. […]
# To create the double-recombinant baculovirus, a cDNA encoding the β chain is cloned into the transfer vector pAcUW1 [Weyer, U; Knight, S & Possee, R D (1990) J. Gen. […] Double-recombinant viruses are detected by spotting insect cells, infected with randomly picked viruses from the transfection, onto membranes and reacting them with a monoclonal antibody e.g. L243 which specifically recognises the HLA-DR heterodimer. Binding of the antibody to Sf21 insect cells is detected using standard flow cytometry techniques, readily available in the literature. […]
# BALB/C mice = assay: Test C: Peptide stimulated DTH (delayed type hypersensitivity) in BALB/C mice; type: in vivo; conditions: ovalbumin DTH footpad swelling, 3-day osmotic mini-pumps
# Protocol: Test C: Peptide stimulated DTH (delayed type hypersensitivity) in BALB/C mice. […] Balb/c female mice (18-20 g), 5 per group, were immunised sub-cutaneously on the flank with 0.1 ml of an emulsion of ovalbumin (Sigma) (2 mg/ml in saline) mixed 1:1 (v/v) with complete Freunds adjurant (Sigma). Seven days later footpad thickness was determined using a dual caliper micrometer followed by a challenge in one hind footpad with a 30 μl sub-plantar injection of 1% heat-aggregated ovalbumin protein in saline. Twenty-four hours after antigen challenge, footpads were measured and the DTH response calculated as the percentage increase in footpad thickness in the injected footpad compared to contralateral control. Inhibitors were adminstered by 3-day osmotic mini-pumps (Alzet) implanted 24 hours prior to antigen challenge at doses ranging from 10 mg/kg/day to 0.1 μg/kg/day. The degree of inhibition was calculated by substracting the value for swelling of inhibitor treated footpads from that of the vehicle dosed controls, dividing by the control value and multiplying by 100%.
substance,measurement,setting,value
Phv-Arg-Ala-IIb-Thr-Ala-Ala-Ala-Papa-NH2 [Example 1],concentration showing significant binding to HLA-DR4Dw4 in Test A,HLA-DR4Dw4,≤ 0.1 µM
same,dose at which active in Test C,BALB/C mice,< 0.1 mg/kg/day
